# Assays:
# [1] = test system: C. difficile clinical isolates; assay: MIC via agar dilution versus 110 clinical isolates of C. difficile; format: cell-based; settings: 110 clinical isolates
# C. difficile = assay: Post-antibiotic effect (PAE) in C. difficile; format: cell-based; settings: at 4× the MIC, clinical isolate LC3
# Experimental: The term “PAE” or “post-antibiotic effect” refers to a well-established pharmacodynamic parameter that reflects the persistent suppression of bacterial growth following antibiotic exposure.
# Vancomycin and rifampin were tested additionally versus LC3.
# Because of the long duration of this effect, an exact PAE was not calculated.
SMILES,MIC range [1],PAE (C. difficile)
"CN[C@H](CC(C)C)C(=O)N[C@H]1C(=O)N[C@@H](CC(N)=O)C(=O)N[C@H]2C(=O)N[C@H]3C(=O)N[C@H](C(=O)N[C@H](C(=O)O)c4cc(O)cc(O)c4-c4cc3ccc4O)[C@H](O)c3ccc(c(Cl)c3)Oc3cc2cc(c3O[C@@H]2O[C@H](CO)[C@@H](O)[C@H](O)[C@H]2O[C@H]2C[C@](C)(N)[C@H](O)[C@H](C)O2)Oc2ccc(cc2Cl)[C@H]1O [Vancomycin, reference compound]",0.06 to 4 µg/mL,less than an hour
"Cc1ncc([N+](=O)[O-])n1CCO [Metronidazole, reference compound]",0.025 to 0.5 µg/mL,–
